SMILES strings stand for the structures. pEC50: −log10 of the molar value. Some results are limits rather than exact numbers.

This test concerns recombinant NL4-3 virus (Renilla luciferase in nef, Gag P373S). As to the kind of experiment: HIV Cell Culture Assay (luciferase reporter virus in MT-2 cells). As to conditions: NL43, read-out: EC50 Group. It is filed as cell-based. Put shortly:
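Cells grown in serum-supplemented RPMI were exposed to graded inhibitor concentrations during a 4-5 day infection. Antiviral effect was then derived from luminescence after adding a combined lysis and dual-luciferase substrate mixture to each well.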
Broadly, the pEC50 is −log10 of the EC50, conventionally taken in molar units. As for `C=C(C)[C@@H]1CC[C@]2(C(=O)NCCN(CC)CC)CC[C@]3(C)[C@H](CC[C@@H]4[C@@]5(C)CC=C(c6ccc(C(=O)O)cc6)C(C)(C)[C@@H]5CC[C@]43C)[C@@H]12` [Example 70, 4-((1R,3aS,5aR,5bR,7aR,11aS,11bR,13aR,13bR)-3a-(2-(diethylamino)ethylcarbamoyl)-5a,5b,8,8,11a-pentamethyl-1-(prop-1-en-2-yl)-2,3,3a,4,5,5a,5b,6,7,7a,8,11,11a,11b,12,13,13a,13b-octadecahydro-1H-cyclopenta[a]chrysen-9-yl)benzoic acid], the pEC50 was above 7.00.

Turning to `C=C(C)[C@@H]1CC[C@]2(C(=O)NCCN3CCS(=O)(=O)CC3)CC[C@]3(C)[C@H](CC[C@@H]4[C@@]5(C)CC=C(c6ccc(C(=O)O)cc6F)C(C)(C)[C@@H]5CC[C@]43C)[C@@H]12` [Example 120, 4-((1R,3aS,5aR,5bR,7aR,11aS,11bR,13aR,13bR)-3a-((2-(1,1-dioxido-4-thiomorpholinyl)ethyl)carbamoyl)-1-isopropenyl-5a,5b,8,8,11a-pentamethyl-2,3,3a,4,5,5a,5b,6,7,7a,8,11,11a,11b,12,13,13a,13b-octadecahydro-1H-cyclopenta[a]chrysen-9-yl)-3-fluorobenzoic acid], the pEC50 is above 7.00. Under `C=C(C)[C@@H]1CC[C@]2(C(=O)NC3(c4ccccn4)CC3)CC[C@]3(C)[C@H](CC[C@@H]4[C@@]5(C)CC=C(c6ccc(C(=O)O)cc6)C(C)(C)[C@@H]5CC[C@]43C)[C@@H]12` [Example 5, 4-((1R,3aS,5aR,5bR,7aR,11aS,11bR,13aR,13bR)-5a,5b,8,8,11a-pentamethyl-1-(prop-1-en-2-yl)-3a-(1-(pyridin-2-yl)cyclopropylcarbamoyl)-2,3,3a,4,5,5a,5b,6,7,7a,8,11,11a,11b,12,13,13a,13b-octadecahydro-1H-cyclopenta[a]chrysen-9-yl)benzoic acid] stands above 7.00; under `C=C(C)[C@@H]1CC[C@]2(C(=O)Nc3nncs3)CC[C@]3(C)[C@H](CC[C@@H]4[C@@]5(C)CC=C(c6ccc(C(=O)O)cc6)C(C)(C)[C@@H]5CC[C@]43C)[C@@H]12` [Example 51, 4-((1R,3aS,5aR,5bR,7aR,11aS,11bR,13aR,13bR)-3a-(1,3,4-thiadiazol-2-ylcarbamoyl)-5a,5b,8,8,11a-pentamethyl-1-(prop-1-en-2-yl)-2,3,3a,4,5,5a,5b,6,7,7a,8,11,11a,11b,12,13,13a,13b-octadecahydro-1H-cyclopenta[a]chrysen-9-yl)benzoic acid], above 7.00; under `C=C(C)[C@@H]1CC[C@]2(C(=O)NCc3nc4ccccc4[nH]3)CC[C@]3(C)[C@H](CC[C@@H]4[C@@]5(C)CC=C(c6ccc(C(=O)O)cc6)C(C)(C)[C@@H]5CC[C@]43C)[C@@H]12` [Example 40, 4-((1R,3aS,5aR,5bR,7aR,11aS,11bR,13aR,13bR)-3a-((1H-benzo[d]imidazol-2-yl)methylcarbamoyl)-5a,5b,8,8,11a-pentamethyl-1-(prop-1-en-2-yl)-2,3,3a,4,5,5a,5b,6,7,7a,8,11,11a,11b,12,13,13a,13b-octadecahydro-1H-cyclopenta[a]chrysen-9-yl)benzoic acid], above 7.00. Then `C=C(C)[C@@H]1CC[C@]2(C(=O)NCCN(CC)CCCC(=O)O)CC[C@]3(C)[C@H](CC[C@@H]4[C@@]5(C)CC=C(c6ccc(C(=O)O)cc6)C(C)(C)[C@@H]5CC[C@]43C)[C@@H]12` [Example 103, 4-((1R,3aS,5aR,5bR,7aR,11aS,11bR,13aR,13bR)-3a-(2-((3-carboxypropyl)(ethyl)amino)ethylcarbamoyl)-5a,5b,8,8,11a-pentamethyl-1-(prop-1-en-2-yl)-2,3,3a,4,5,5a,5b,6,7,7a,8,11,11a,11b,12,13,13a,13b-octadecahydro-1H-cyclopenta[a]chrysen-9-yl)benzoic acid], with above 7.00; and `C=C(C)[C@@H]1CC[C@]2(C(=O)NCCN(CC(=O)O)CC(=O)O)CC[C@]3(C)[C@H](CC[C@@H]4[C@@]5(C)CC=C(c6ccc(C(=O)O)cc6)C(C)(C)[C@@H]5CC[C@]43C)[C@@H]12` [Example 88, 2,2′-(2-((1R,3aS,5aR,5bR,7aR,11aS,11bR,13aR,13bR)-9-(4-carboxyphenyl)-5a,5b,8,8,11a-pentamethyl-1-(prop-1-en-2-yl)-2,3,3a,4,5,5a,5b,6,7,7a,8,11,11a,11b,12,13,13a,13b-octadecahydro-1H-cyclopenta[a]chrysene-3a-carboxamido)ethylazanediyl)diacetic acid], with below 7.00; and `C=C(C)[C@@H]1CC[C@]2(C(=O)NCCN(CC)CCC(=O)O)CC[C@]3(C)[C@H](CC[C@@H]4[C@@]5(C)CC=C(c6ccc(C(=O)O)cc6)C(C)(C)[C@@H]5CC[C@]43C)[C@@H]12` [Example 89, 4-((1R,3aS,5aR,5bR,7aR,11aS,11bR,13aR,13bR)-3a-(2-((2-carboxyethyl)(ethyl)amino)ethylcarbamoyl)-5a,5b,8,8,11a-pentamethyl-1-(prop-1-en-2-yl)-2,3,3a,4,5,5a,5b,6,7,7a,8,11,11a,11b,12,13,13a,13b-octadecahydro-1H-cyclopenta[a]chrysen-9-yl)benzoic acid], with above 7.00.

On to `C=C(C)[C@@H]1CC[C@]2(C(=O)N(C)CCO)CC[C@]3(C)[C@H](CC[C@@H]4[C@@]5(C)CC=C(c6ccc(C(=O)O)cc6)C(C)(C)[C@@H]5CC[C@]43C)[C@@H]12` [Example 23, 4-((1R,3aS,5aR,5bR,7aR,11aS,11bR,13aR,13bR)-3a-((2-hydroxyethyl)(methyl)carbamoyl)-5a,5b,8,8,11a-pentamethyl-1-(prop-1-en-2-yl)-2,3,3a,4,5,5a,5b,6,7,7a,8,11,11a,11b,12,13,13a,13b-octadecahydro-1H-cyclopenta[a]chrysen-9-yl)benzoic acid], for which the pEC50 is above 7.00. Regarding `C=C(C)[C@@H]1CC[C@]2(C(=O)NCCNc3ccccc3)CC[C@]3(C)[C@H](CC[C@@H]4[C@@]5(C)CC=C(c6ccc(C(=O)O)cc6)C(C)(C)[C@@H]5CC[C@]43C)[C@@H]12` [Example 110, 4-((1R,3aS,5aR,5bR,7aR,11aS,11bR,13aR,13bR)-5a,5b,8,8,11a-pentamethyl-3a-(2-(phenylamino)ethylcarbamoyl)-1-(prop-1-en-2-yl)-2,3,3a,4,5,5a,5b,6,7,7a,8,11,11a,11b,12,13,13a,13b-octadecahydro-1H-cyclopenta[a]chrysen-9-yl)benzoic acid], the pEC50 is above 7.00. In the case of `C=C(C)[C@@H]1CC[C@]2(C(=O)NCCCN(CCC(=O)O)CCC(=O)O)CC[C@]3(C)[C@H](CC[C@@H]4[C@@]5(C)CC=C(c6ccc(C(=O)O)cc6)C(C)(C)[C@@H]5CC[C@]43C)[C@@H]12` [Example 100, 3,3′-(3-((1R,3aS,5aR,5bR,7aR,11aS,11bR,13aR,13bR)-9-(4-carboxyphenyl)-5a,5b,8,8,11a-pentamethyl-1-(prop-1-en-2-yl)-2,3,3a,4,5,5a,5b,6,7,7a,8,11,11a,11b,12,13,13a,13b-octadecahydro-1H-cyclopenta[a]chrysene-3a-carboxamido)propylazanediyl)dipropanoic acid], the pEC50 was below 7.00.

The values are drawn from patent publication US8802661B2, “C-28 amides of modified C-3 betulinic acid derivatives as HIV maturation inhibitors” (priority 2010, dated 2014).
